pEC50, pIC50, pKi: −log10 of the molar value.
Legend:
[1] = target: Voltage-gated potassium channel KCNC1 (Rattus norvegicus, UniProt P25122); assay: Inhibition of rat voltage-gated K channel 3.1 expressed in CHO cells by patch clamp assay; type: cell-based
[2] = target: Sodium channel protein type 10 subunit alpha (Homo sapiens, UniProt Q9Y5Y9); assay: Inhibition of voltage-gated Na channel 1.8 (unknown origin)
Rattus norvegicus = species on record: Rattus norvegicus; assay: Selectivity ratio of EC50 for AMPA receptor in rat DRG neurons to EC50 for AMPA receptor in rat hippocampal neurons; type: tissue-based; conditions: Hippocampus
[3] = Agonist activity at AMPA receptor in rat hippocampal neurons by patch clamp technique; type: tissue-based; conditions: Hippocampus
[4] = target: Small conductance calcium-activated potassium channel protein 3 (Homo sapiens, UniProt Q9UGI6); assay: Inhibition of human Kca 2.3 expressed in HEK293 cells by patch clamp technique; type: cell-based
[5] = Blockade of ASIC (unknown origin); parameters: species or system Homo sapiens
[6] = target: T1, Gamma-aminobutyric acid receptor subunit alpha-5 (Homo sapiens, UniProt P31644); assay: Positive allosteric modulation of GABAA alpha5 (unknown origin)
T1 sequence (P31644 whole entry): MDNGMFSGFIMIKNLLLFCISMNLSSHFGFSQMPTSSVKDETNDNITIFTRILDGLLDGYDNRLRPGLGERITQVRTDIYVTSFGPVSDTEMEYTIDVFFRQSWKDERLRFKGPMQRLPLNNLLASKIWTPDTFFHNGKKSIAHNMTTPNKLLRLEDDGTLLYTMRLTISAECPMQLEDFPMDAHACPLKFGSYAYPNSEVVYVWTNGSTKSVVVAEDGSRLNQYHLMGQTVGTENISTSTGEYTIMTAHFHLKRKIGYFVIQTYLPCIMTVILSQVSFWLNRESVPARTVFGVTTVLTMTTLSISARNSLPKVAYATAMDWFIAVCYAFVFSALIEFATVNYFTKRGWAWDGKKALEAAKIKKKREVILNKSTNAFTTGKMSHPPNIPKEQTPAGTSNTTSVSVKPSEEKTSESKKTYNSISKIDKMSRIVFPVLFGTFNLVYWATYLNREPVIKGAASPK

[7] = target: T2, Gamma-aminobutyric acid receptor subunit alpha-3 (Homo sapiens, UniProt P34903); assay: Positive allosteric modulation of GABAA alpha3 (unknown origin)
T2 sequence (P34903 whole entry): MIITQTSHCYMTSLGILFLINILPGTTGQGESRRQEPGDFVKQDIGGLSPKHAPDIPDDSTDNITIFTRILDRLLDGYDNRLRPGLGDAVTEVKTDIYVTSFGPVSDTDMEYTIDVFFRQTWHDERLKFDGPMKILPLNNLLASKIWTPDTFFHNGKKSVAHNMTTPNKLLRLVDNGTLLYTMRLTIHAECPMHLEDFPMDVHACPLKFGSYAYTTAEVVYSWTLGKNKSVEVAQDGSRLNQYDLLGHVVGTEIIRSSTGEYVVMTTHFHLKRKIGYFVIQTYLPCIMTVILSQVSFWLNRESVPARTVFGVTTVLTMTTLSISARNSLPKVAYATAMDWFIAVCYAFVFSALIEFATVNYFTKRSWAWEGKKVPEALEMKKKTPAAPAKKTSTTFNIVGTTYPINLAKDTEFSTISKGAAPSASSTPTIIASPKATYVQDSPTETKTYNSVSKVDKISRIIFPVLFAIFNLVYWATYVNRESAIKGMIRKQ

[8] = target: T3, Gamma-aminobutyric acid receptor subunit alpha-1 (Homo sapiens, UniProt P14867); assay: Positive allosteric modulation of GABAA alpha1 (unknown origin)
T3 sequence (P14867 whole entry): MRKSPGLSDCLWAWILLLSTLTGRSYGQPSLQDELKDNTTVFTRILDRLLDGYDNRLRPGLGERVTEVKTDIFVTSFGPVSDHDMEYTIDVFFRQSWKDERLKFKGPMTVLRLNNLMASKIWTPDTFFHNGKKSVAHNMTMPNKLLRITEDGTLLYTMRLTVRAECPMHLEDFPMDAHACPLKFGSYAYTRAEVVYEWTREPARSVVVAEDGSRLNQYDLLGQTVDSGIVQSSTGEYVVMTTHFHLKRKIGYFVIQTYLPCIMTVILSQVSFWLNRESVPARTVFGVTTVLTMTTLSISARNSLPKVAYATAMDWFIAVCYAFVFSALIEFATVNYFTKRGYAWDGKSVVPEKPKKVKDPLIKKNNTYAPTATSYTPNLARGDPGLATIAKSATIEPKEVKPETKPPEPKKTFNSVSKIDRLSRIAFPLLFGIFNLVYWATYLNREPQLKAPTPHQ

[9] = target: T4, Gamma-aminobutyric acid receptor subunit alpha-2 (Homo sapiens, UniProt P47869); assay: Positive allosteric modulation of GABAA alpha2 (unknown origin)
T4 sequence (P47869 whole entry): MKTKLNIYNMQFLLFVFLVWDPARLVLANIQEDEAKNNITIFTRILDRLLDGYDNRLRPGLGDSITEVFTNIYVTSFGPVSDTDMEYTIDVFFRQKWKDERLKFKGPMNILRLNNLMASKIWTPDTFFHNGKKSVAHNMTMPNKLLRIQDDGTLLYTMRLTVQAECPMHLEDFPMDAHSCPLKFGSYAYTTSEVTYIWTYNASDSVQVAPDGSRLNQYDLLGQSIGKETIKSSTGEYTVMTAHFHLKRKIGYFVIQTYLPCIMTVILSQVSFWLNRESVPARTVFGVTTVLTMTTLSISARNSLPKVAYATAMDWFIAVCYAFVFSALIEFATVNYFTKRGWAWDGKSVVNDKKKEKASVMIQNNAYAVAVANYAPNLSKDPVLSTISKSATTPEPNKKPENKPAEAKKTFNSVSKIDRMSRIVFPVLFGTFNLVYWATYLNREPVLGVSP

Homo sapiens = species on record: Homo sapiens; assay: Selectivity ratio of IC50 for human voltage-gated Na channel 1.5 to IC50 for human voltage-gated Na channel 1.3
[10] = target: Sodium channel protein type 3 subunit alpha (Homo sapiens, UniProt Q9NY46); assay: Inhibition of human voltage-gated Na channel 1.3
[11] = Selectivity ratio of EC50 for mouse voltage-gated K channel 1.3 to EC50 for human voltage-gated K channel 1.4
Mus musculus [12] = species on record: Mus musculus; assay: Selectivity ratio of EC50 for mouse voltage-gated K channel 1.3 to EC50 for mouse voltage-gated K channel 1.1
[13] = Selectivity ratio of EC50 for mouse voltage-gated K channel 1.3 to EC50 for rat voltage-gated K channel 1.2
Mus musculus [14] = species on record: Mus musculus; assay: Selectivity ratio of EC50 for mouse voltage-gated K channel 1.3 to EC50 for mouse voltage-gated K channel 1.7
[15] = target: Glutamate receptor ionotropic, kainate 1 (Homo sapiens, UniProt P39086); assay: Agonist activity at GluK1 (unknown origin)
[16] = target: Neuronal acetylcholine receptor; alpha4/beta2 (Homo sapiens, UniProt P17787+P43681); assay: Agonist activity at human alpha4beta2 nAChR expressed in HEK293 cells incubated for 5 mins measured every second for 1 mins followed by every 5 secs for 4 mins by calcium flux assay; type: cell-based
[17] = target: Transient receptor potential cation channel subfamily V member 4 (Homo sapiens, UniProt Q9HBA0); assay: Inhibition of TRPV4 (unknown origin)
[18] = target: Gamma-aminobutyric acid receptor subunit alpha-5 (Homo sapiens) (UniProt P31644); assay: Positive allosteric modulation of GABAA alpha5 (unknown origin) relative to control
[19] = target: T5, Gamma-aminobutyric acid receptor subunit alpha-2 (Homo sapiens) (UniProt P47869); assay: Positive allosteric modulation of GABAA alpha2 (unknown origin) relative to control
T5 sequence (whole entry): T4 sequence (P47869 whole entry)

[20] = target: Gamma-aminobutyric acid receptor subunit alpha-3 (Homo sapiens) (UniProt P34903); assay: Positive allosteric modulation of GABAA alpha3 (unknown origin) relative to control
[21] = target: Acid-sensing ion channel 3 (Rattus norvegicus, UniProt O35240); assay: Inhibition of ASIC3 in rat DRG neurons
Sequence of Acid-sensing ion channel 3 (O35240 whole entry): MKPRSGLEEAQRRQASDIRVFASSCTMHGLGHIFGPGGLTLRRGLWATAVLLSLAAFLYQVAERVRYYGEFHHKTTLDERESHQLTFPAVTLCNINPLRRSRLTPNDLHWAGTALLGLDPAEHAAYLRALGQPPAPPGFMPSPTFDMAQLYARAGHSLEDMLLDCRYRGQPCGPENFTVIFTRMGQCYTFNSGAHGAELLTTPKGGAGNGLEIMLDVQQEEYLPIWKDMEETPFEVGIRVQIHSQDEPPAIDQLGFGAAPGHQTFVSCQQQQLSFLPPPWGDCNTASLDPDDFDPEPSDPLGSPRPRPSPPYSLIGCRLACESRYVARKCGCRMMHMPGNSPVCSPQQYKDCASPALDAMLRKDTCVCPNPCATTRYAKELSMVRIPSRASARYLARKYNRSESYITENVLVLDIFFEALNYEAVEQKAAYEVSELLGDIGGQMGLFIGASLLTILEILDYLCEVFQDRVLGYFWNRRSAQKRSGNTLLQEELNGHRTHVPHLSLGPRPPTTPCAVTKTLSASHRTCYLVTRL

Sequence of Voltage-gated potassium channel KCNC1 (P25122 whole entry): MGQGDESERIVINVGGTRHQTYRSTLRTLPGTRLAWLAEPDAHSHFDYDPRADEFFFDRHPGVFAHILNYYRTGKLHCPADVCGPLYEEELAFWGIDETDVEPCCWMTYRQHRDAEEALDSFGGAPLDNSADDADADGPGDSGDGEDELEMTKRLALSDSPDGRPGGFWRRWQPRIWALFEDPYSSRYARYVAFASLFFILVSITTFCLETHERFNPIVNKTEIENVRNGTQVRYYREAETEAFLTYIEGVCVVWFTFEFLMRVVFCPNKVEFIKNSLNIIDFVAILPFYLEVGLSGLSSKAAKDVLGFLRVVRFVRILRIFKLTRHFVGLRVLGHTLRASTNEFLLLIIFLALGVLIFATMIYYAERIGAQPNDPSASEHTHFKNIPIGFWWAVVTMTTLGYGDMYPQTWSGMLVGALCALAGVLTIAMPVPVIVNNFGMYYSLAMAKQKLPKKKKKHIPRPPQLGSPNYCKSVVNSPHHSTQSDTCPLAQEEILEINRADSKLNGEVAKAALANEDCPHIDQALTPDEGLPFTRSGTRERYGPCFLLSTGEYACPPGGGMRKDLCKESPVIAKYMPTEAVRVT
Sequence of Sodium channel protein type 3 subunit alpha (Q9NY46 whole entry): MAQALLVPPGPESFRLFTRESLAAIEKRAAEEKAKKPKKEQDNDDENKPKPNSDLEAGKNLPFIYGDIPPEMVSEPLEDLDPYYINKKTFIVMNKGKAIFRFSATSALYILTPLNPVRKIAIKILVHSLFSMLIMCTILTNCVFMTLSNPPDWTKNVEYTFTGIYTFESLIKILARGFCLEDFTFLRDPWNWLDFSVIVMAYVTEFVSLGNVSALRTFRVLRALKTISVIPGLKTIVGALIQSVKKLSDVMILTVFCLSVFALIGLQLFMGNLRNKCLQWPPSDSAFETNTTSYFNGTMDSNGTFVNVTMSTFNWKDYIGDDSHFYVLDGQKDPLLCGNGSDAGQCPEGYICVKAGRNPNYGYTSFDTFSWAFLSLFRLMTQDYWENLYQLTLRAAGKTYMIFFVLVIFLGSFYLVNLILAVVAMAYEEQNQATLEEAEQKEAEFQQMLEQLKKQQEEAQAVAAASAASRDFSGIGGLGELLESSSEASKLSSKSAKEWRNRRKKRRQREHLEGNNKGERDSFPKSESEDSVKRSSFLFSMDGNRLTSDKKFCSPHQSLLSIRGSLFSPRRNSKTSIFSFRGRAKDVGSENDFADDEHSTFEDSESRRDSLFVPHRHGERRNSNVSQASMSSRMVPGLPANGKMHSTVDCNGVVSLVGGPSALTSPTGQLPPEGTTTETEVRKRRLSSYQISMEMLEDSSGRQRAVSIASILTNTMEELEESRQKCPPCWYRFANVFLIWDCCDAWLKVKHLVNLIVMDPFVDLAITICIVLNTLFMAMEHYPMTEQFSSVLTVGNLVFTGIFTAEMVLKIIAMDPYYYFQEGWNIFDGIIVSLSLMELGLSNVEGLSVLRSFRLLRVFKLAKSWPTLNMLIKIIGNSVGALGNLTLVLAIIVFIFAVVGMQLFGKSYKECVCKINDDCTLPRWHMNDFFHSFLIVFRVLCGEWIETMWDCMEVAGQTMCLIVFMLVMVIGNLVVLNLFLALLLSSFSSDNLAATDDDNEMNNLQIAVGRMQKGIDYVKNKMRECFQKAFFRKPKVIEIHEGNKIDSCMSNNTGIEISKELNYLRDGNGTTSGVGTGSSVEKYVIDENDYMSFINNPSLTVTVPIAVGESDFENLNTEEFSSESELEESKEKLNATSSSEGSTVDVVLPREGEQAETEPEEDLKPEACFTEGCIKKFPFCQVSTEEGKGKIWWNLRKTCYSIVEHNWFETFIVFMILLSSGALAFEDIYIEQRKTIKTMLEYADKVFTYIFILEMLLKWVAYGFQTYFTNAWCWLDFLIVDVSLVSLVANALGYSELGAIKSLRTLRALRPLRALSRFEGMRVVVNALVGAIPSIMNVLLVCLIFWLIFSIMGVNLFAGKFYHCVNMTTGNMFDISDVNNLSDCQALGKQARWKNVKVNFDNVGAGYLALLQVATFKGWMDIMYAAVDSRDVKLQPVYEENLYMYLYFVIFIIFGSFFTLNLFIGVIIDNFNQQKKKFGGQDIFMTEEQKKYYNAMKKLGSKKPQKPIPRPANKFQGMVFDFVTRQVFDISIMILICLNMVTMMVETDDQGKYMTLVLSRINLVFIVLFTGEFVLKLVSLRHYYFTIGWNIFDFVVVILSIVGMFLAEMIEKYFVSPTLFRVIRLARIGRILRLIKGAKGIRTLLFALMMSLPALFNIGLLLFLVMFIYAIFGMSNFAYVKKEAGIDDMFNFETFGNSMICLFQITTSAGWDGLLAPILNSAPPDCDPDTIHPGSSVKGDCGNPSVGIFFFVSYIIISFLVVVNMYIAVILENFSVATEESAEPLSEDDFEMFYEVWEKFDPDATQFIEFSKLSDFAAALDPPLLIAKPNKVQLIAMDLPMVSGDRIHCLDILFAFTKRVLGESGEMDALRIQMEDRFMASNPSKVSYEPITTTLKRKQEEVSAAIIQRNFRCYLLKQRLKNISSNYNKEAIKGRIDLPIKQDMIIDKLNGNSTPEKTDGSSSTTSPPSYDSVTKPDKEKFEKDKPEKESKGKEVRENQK
Sequence of Small conductance calcium-activated potassium channel protein 3 (Q9UGI6 whole entry): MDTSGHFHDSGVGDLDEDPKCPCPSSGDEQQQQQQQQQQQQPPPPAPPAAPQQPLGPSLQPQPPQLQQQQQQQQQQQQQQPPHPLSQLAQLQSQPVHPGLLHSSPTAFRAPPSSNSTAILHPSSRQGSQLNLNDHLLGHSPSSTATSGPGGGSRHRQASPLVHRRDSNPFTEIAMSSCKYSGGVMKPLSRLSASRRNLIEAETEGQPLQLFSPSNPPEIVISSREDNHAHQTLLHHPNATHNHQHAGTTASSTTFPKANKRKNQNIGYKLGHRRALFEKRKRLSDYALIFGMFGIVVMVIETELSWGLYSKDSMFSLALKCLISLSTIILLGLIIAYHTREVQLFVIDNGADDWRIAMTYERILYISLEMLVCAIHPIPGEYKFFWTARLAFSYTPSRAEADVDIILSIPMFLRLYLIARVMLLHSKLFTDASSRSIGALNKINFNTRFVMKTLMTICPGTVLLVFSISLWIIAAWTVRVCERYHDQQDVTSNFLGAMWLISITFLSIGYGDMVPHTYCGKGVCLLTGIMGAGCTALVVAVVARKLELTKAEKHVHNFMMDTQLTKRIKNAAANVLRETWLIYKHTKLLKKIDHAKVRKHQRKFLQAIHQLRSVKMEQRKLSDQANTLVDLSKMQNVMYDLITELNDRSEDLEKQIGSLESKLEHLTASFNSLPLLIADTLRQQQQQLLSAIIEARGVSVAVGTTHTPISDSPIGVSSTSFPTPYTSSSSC
Sequence of Neuronal acetylcholine receptor; alpha4/beta2 (P17787 whole entry): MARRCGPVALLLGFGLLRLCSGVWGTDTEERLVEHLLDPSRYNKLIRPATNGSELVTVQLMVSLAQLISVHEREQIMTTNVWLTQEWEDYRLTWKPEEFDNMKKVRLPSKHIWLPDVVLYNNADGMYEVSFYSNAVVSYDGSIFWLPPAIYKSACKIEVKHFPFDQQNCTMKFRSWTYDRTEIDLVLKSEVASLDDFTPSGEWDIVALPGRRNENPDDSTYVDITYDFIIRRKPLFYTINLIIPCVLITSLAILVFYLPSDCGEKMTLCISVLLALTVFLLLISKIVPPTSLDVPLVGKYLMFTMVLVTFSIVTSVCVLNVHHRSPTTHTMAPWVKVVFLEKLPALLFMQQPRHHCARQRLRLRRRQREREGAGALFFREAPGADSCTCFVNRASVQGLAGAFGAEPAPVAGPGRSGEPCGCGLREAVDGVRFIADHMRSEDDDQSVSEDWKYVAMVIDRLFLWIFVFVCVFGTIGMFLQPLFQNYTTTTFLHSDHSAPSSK
Sequence of Neuronal acetylcholine receptor; alpha4/beta2 (P43681 whole entry): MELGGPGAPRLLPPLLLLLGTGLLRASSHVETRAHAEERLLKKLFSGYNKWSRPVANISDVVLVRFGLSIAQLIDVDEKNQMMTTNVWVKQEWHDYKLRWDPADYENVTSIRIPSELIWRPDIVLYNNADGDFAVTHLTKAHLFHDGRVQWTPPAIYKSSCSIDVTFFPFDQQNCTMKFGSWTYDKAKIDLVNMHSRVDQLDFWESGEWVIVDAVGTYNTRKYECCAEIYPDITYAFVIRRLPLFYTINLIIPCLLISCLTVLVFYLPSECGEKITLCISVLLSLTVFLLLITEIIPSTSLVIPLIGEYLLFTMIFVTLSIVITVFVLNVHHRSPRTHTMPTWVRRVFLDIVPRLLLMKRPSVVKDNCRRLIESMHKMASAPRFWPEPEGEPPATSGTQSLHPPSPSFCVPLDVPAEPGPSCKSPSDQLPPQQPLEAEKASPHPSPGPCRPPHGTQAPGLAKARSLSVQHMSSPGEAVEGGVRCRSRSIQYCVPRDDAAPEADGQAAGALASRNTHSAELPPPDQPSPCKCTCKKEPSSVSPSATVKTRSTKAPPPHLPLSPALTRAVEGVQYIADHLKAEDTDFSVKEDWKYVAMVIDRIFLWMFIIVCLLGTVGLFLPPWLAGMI

CNCCC(Oc1ccc(C(F)(F)F)cc1)c1ccccc1 (configuration not stated) [FLUOXETINE]
pIC50 [1]: 4.88

O=C(NCc1cccnc1N1CCOCC1)c1cncc(-c2ccc(OC(F)(F)F)cc2)n1
pIC50 [2]: 7.52

N[C@@H](Cn1cc(F)c(=O)[nH]c1=O)C(=O)O
Ratio EC50 (Rattus norvegicus): 46
pEC50 [3]: 5.82

Cc1ccn(-c2nc(Nc3ccc(F)cc3)c3ncn(C)c3n2)n1
pEC50 [4]: 7.70

N=C(N)NC(=O)c1nc(Cl)c(N)nc1N [AMILORIDE]
pIC50 [5]: 5.00

NCCC(Oc1ccc(C(F)(F)F)cc1)c1ccccc1 (configuration not stated) [NORFLUOXETINE]
pIC50 [1]: 6.10

CCOC(=O)c1ncn2c1[C@@H]1CCCN1C(=O)c1cc(OC)ccc1-2
pKi [6]: 9.35
pKi [7]: 7.60
pKi [8]: 7.31
pKi [9]: 7.57

O=C(NCc1ccc(Cl)c(C(F)(F)F)c1)c1ccc(S(=O)(=O)Nc2ncc(Cl)s2)cc1
Ratio IC50 (Homo sapiens): > 1000
pIC50 [10]: 7.52

O=c1ccc2c(OCCCCc3ccccc3)c3ccoc3cc2o1
Ratio EC50 [11]: 17
Ratio EC50 (Mus musculus [12]): 17
Ratio EC50 [13]: 17
Ratio EC50 (Mus musculus [14]): 17

CC(C)(C)c1s[nH]c(=O)c1C[C@H](N)C(=O)O
pEC50 [15]: 7.00

CN[C@@H](C)C/C=C/c1cncc(OC(C)C)c1 [ISPRONICLINE]
pEC50 [16]: 6.97

CC(C)NCCN(C(C)C)S(=O)(=O)c1ccc(Cl)cc1Cl
pIC50 [17]: 5.64

Cn1ncnc1COc1nn2c(-c3cc(F)ccc3F)nnc2cc1C(C)(C)C
pKi [6]: 8.64
pKi [7]: 9.15
Activity [18]: 36%
Activity [19]: 34%
Activity [20]: 39%
pKi [9]: 9.15

CC(C)C1c2cc(C3CC3c3ccc4cc(C(=N)N)ccc4c3)ccc2CCN1C (configuration not stated)
pIC50 [21]: 5.02

Reference: ChEMBL document CHEMBL2321869, “Ion channels as therapeutic targets: a drug discovery perspective” (J Med Chem, 2013)
